Results published in patent US11124571B2, “Methods of sensitizing cancer to immunotherapy” (CASE WESTERN RESERVE UNIVERSITY, priority 2016, dated 2021).

Assays:
[1] = system: PD-L1 transcript in MM1 WT cells; test: PD-L1 mRNA expression (qPCR) in MM1 WT cells treated with Roscovitine and stimulated with IFNγ; type: cell-based, mouse; details: Roscovitine 10 μM or 20 μM, 4 days, IFNγ 100 ng/ml 24 hours
Procedure: Total cellular RNA was isolated from 5×10^6-107 cells using TRIZOL and RNAspin Mini kit (GE Healthcare, UK), treated with DNAseI to eliminate genomic DNA, and quantitated using the NanoDrop2000 spectrophotometer. Reverse transcription (RT) of 1 μg of total RNA was performed with oligo(dT)16 using on using SuperScript First Strand Synthesis System for RT-PCR kit (Life Technologies, Carlsbad, Calif.). The resulting cDNA was used as a template for the amplification of target gene transcripts by real time PCR, using SYBR Green PCR Master Mix (Life Technologies, Carlsbad, Calif.) on the ABI 7300 Real-Time PCR machine (Life Technologies, Carlsbad, Calif.). Target gene expression was calculated using the standard curve method upon normalization to cytochrome c housekeeping gene. The primer sequences were as follows: Cdk5 forward: […]; Cdk5 reverse: […]; cytochrome c forward: […]; cytochrome c reverse: […]; p35 forward: […]; p35 reverse: […]; PD-L1 forward: […] and PD-L1 reverse: […].
Murine MB cell lines MM1 were grown in RPMI supplemented with 10% FBS. A stock solution of Roscovitine (10 mM) or vehicle control-DMSO was diluted in fresh tumor medium and added to samples to achieve a final concentration of 10 μM or 20 μM. After 4 days of treatment, cells were subjected to 100 ng/ml rmIFN-γ (R&D Systems) for 24 hours and then harvested for qPCR analysis.

[2] = system: surface PD-L1 on DAOY and UW228 human MB lines; test: Surface PD-L1 (flow cytometry) on human MB lines treated with Roscovitine and stimulated with IFNγ; type: cell-based; details: IFNγ 24 hours
[3] = system: surface PD-L1 on MM1 (Medulloblastoma) cells; details: same cell lines (MM1, RMS); reported in Dorand et al. Science 2016; cited from earlier work
[4] = system: surface PD-L1 on RMS 76.9 (Rhabdomyosarcoma) cells; test: Surface PD-L1 expression on RMS 76.9 cells upon IFNγ exposure in the presence of compound; type: cell-based, mouse; details: 24-hour exposure, IFNγ 100 ng/ml
Procedure: (§1) a) Seed wild type MM1 (Medulloblastoma) and RMS 76.9 (Rhabdomyosarcoma) tumor cells (100,000 per well in 6-well plate and 3 ml media). Use PD-L1-deficient tumor cells (crPDL1; genetically manipulated using CRISPR-Cas9 technology) as controls:
(§2) b) Serum starve overnight
(§3) c) Add various concentration of CYC065 in DMSO, along with 100 ng/ml IFNγ
(§4) d) 24 hours later, harvest cells, stain for PD-L1 using anti-mPDL1-PE antibody and analyze by flow cytometry

[5] = system: PD-L1, MHC-II and MHC-I surface expression on harvested MM1 tumor cells; test: IFNγ response of tumor cells harvested on Day 21 from treated mice and cultured in vitro; type: cell-based, mouse; details: tumors from in vivo treated mice; cultured 7-10 days without compound; IFNγ 100 ng/ml 24 hours
Description: i) Tumor mass was resected on Day 21 and grown in culture for 1 week, followed by 24-hour exposure to IFNγ to assess PD-L1 response in vitro.

[6] = system: surface PD-L1 on MM1 (Medulloblastoma) cells; test: Surface PD-L1 expression on MM1 cells upon IFNγ exposure in the presence of compound; type: cell-based, mouse
Procedure: as §1, §2, §3, §4

MM1 tumors = test: In vivo anti-tumor efficacy against subcutaneous MM1 tumors
Procedure: e) 10 8-12 week-old […] male mice per cohort were used for all in vivo tumor growth kinetics experiment.
f) 50,000 tumor cells were inoculated subcutaneously in the flank on Day 0
h) Mice were monitored at least twice a week for tumor growth and tumor size measurements.

[7] = MM1, 24-hour exposure, IFNγ 100 ng/ml

Row | Structure (SMILES) | PD-L1 transcript [1] | surface PD-L1 upregulation upon IFNγ exposure [2] | concentration at which effects on PD-L1 down modulation are shown [3] | concentration at which PD-L1 response upon IFNγ stimulation is completely abrogated [4] | MHC-II/MHC-I response upon in vitro exposure to IFNγ [5] | PD-L1 response upon in vitro exposure to IFNγ [5] | concentration at which PD-L1 response upon IFNγ stimulation is completely abrogated [6, 7] | concentration at which cells began to show PD-L1 down-modulation [6, 7] | increase in potency for PD-L1 down modulation as compared to Roscovitin ([6]; MM1 and RMS cell lines) | mortality (MM1 tumors; 50 mg/kg daily×5 days/week by gavage in water, prolonged exposure, MM1-bearing C57BL/6 mice) | tumor size (MM1 tumors; 50 mg/kg daily×5 days/week by gavage, start Day 0 or Day 7)
1 | CC[C@H](CO)Nc1nc(NCc2ccccc2)c2ncn(C(C)C)c2n1 [Roscovitine, 6-benzylamino-2-[(R)-1-ethyl-2-hydroxyethylamino]-9-isopropylpurine] | dose-dependent decrease | diminished surface PD-L1 upregulation | ≥ 10 µM |  |  |  |  |  |  |  | 
2 | CC[C@H](Nc1nc(NCc2cnc(C)cc2C)c2ncn(C(C)C)c2n1)[C@@H](C)O [CYC065] |  |  |  | 1 µM | enhanced MHC-II/MHC-I enhancement | reduced PD-L1 response | 1 µM | 0.5 µM | > 10 fold | 70% | significantly smaller sized tumor
